Measurements from US12065512B2, “Cyclic peptide and a medicament, external preparation and cosmetic comprising said cyclic peptide” (Igisu Co., Ltd., priority 2015, dated 2024).
“Also recorded” adds a separate entry of the source. Positions of bridges follow the written chain, without caps; N, C: chain ends. No end group written: not given here.

Tests used:
Type in all cases: in vivo, human
[1] = test system: normal subjects who had symptoms of roughened lips; test: Mucosal condition of roughened lips upon application of B ring gel formulation; conditions: 1 application
Method: The B ring gel formulation was applied to normal subjects who had symptoms of roughened lips, and changes in mucosal condition were observed (Table below). The changes in mucosal conditions were determined based on physical sensory evaluation by the subject and our objective observation as physicians.

[2] = test system: skin condition of the subjects; test: Skin condition upon using bath agent comprising B ring; conditions: bath in 37 to 41° C. hot water with 0.01 μM, once a day for 14 days
Method: 4.4 Observation on Skin Condition Upon Using Bath Agent Comprising B Ring
Subjects were given bath in 37 to 41° C. hot water comprising B ring dissolved at 0.01 μM (100 ml of 20 μM B ring solution dissolved in 200 L hot water) once a day for 14 days, and skin condition of the subjects was compared to the case of hot water alone (Table 14). The changes in skin conditions were determined based on physical sensory evaluation by the subject and our objective observation as physicians.

[3] = test system: subjects suffering various dermatitis; test: B ring gel formulation versus gel base by two-sided application in dermatitis; conditions: right side B ring, left side gel base; atopic dermatitis or chronic eczema
Description: 3.2 Comparing B Ring Gel Formulation to Gel Base by Two-Sided Application For subjects suffering various dermatitis, either B ring gel formulation or the gel base was applied to the affected site, and changes in symptoms before and after the application were observed (Table below).

[4] = test system: normal subjects who had symptoms of scalp/hair; test: Scalp/hair condition upon application of B ring gel formulation
Method: 4.3 Observation on scalp/hair condition upon application of B ring gel formulation. The B ring gel formulation was applied to normal subjects who had symptoms of scalp/hair, and changes in conditions of scalp and hair were observed (Table below). The changes in scalp/hair were determined based on physical sensory evaluation by the subject and our objective observation as physicians.

[5] = test system: skin conditions of subjects; test: Skin-improving (cosmetic) effect of gel formulation applied to face
Method: 4.1.1 Confirming Skin-Improving Effect (Comparing B Ring Gel Formulation to BNP Gel Formulation)
The B ring gel formulation or BNP gel formulation was applied to subjects. The B ring gel formulation was applied on the right cheek or eye of each subject, the BNP gel formulation on the left cheek or eye, and changes in skin conditions were observed and compared (Table below). The changes in skin conditions were determined based on physical sensory evaluation by the subject and our objective observation as physicians.
Table below summarizes examples in which B ring gel formulation was applied without applying two-sided. The changes in skin conditions were determined by similar method as described above.
4.1.2 Confirming Skin-Improving Effect (Comparing B Ring Gel Formulation to Gel Base)
In order to examine the presence or absence of the contribution by the gel base to the effects of B ring gel formulation and BNP gel formulation, three subjects were administered B ring gel formulation on their right face and the gel base on the left, and changes in skin conditions on the subject's faces were observed (Table below).

[6] = test system: symptoms associated to various alopecia; test: Therapeutic effect on alopecia: gel formulation applied to decalvant site; conditions: 1 μmol, 1 application/day, continued; male alopecia, right side
Method: 5. Confirming Therapeutic Effect on Alopecia Either B ring gel formulation or BNP gel formulation was applied, and their effects on symptoms associated to various alopecia were observed (Table below). The changes in symptoms were determined based on physical sensory evaluation by the subject and our objective observation as physicians.

[7] = test system: nasal cavity; test: Cyclic peptides with amino acid replacement: nasal effect (formulations A to E = 3, 15, 30, 100, 500 μg/ml in physiological saline, 0.1 ml); conditions: formulation C (30 μg/ml in physiological saline), once a day, 0.1 ml applied to each nasal cavity; subject with allergic rhinitis
Method: (§1) Next, cyclic peptides with some replaced amino acid were subjected to following examination in order to confirm their effect. The methods for preparing the above cyclic peptide and confirming amino acid sequence of the prepared peptide were same as the method for preparing the cyclic peptide as described above and Mass spectroscopy method.
9.3 Confirming Nasal Effect
The obtained cyclic peptide was prepared in physiological saline at 3, 15, 30, 100 or 500 μg/ml, and 0.1 ml each was applied to nasal cavity. Each of formulations A to E in the table indicates the concentration of the cyclic peptide at 3, 15, 30, 100 or 500 μg/ml, respectively. The absence of the effect upon the application of physiological saline without the peptide confirmed the effect was not a placebo effect.

[8] = test system: skin, affected site; test: Cyclic peptides with amino acid replacement: effects on skin (formulations A to E = 3, 15, 30, 100, 500 μg/ml in purified water); conditions: eczema; formulation C (30 μg/ml in purified water); once a day
Method: as §1
9.2 Confirming Effects on Skin
The obtained cyclic peptide was prepared in purified water at 3, 15, 30, 100 or 500 μg/ml and applied to affected site. Each of formulations A to E in the table indicates the concentration of the cyclic peptide at 3, 15, 30, 100 or 500 μg/ml, respectively. The absence of the effect upon the application of purified water without the peptide confirmed the effect was not a placebo effect.

Substance: Cys-Phe-Gly-Arg-Lys-Met-Asp-Arg-Ile-Ser-Ser-Ser-Ser-Gly-Leu-Gly-Cys (CFGRKMDRISSSSGLGC; disulfide 1-17; ends not checked) [B ring]
- Post-application symptoms (lips, mucosal condition) ([1]; 0.5 μmol): 3 min after application, lips became moisturized.
- Post-application symptoms (lips, mucosal condition) ([1]; 1 μmol): 2 min after application, cracks on mouth corner were remitted and Skin became moisturized soon after application. After 2 min,
- Post-application symptoms (lips, mucosal condition) ([1]; 2 μmol): After 2 min, lips were full and soft, and wrinkles were less; also recorded: After 2 min, lips were full, soft and moisturized, and wrinkles
- Changes in subjective symptoms [2]: Remission of itch and pain; also recorded: Relief of pain; also recorded: Itches after bath was remitted
- Post-application symptoms [2]: ameliorating effect on miliaria, cracked or chapped skin; also recorded: Remission of desiccatinn; also recorded: Remission of flare and milaria; also recorded: Cracks gradually became; also recorded: Gradual remission of erythema
- Post-application symptoms [3]: Flare remitted soon after application. After; also recorded: Flare started to fade soon after application,; also recorded: Flare remitted soon after application,; also recorded: Flare and pigmentation removed 2.5 min after
- Post-application symptoms (scalp/hair) ([4]; 1 μmol, 1 application/day (5 days, 3 weeks or continued), daily for 3 weeks): Hair growth was stimulated, and an increase in hair volume
- Post-application symptoms (scalp/hair) ([4]; 1 μmol, 1 application/day (5 days, 3 weeks or continued), daily for 5 days): A decrease in falling hair was observed, showing an effect
- Post-application symptoms (scalp/hair) ([4]; 1 μmol, 1 application/day (5 days, 3 weeks or continued), daily, continued post partum): growth was stimulated, improving thinning of hair.
- Post-application symptoms (scalp/hair) ([4]; 2 μmol, 1 application): After 2 min, itches were removed, scalp seborrhea and; also recorded: After 1 min. itches were removed. After 2 min, scalp; also recorded: After 2 min, itches were removed, scalp seborrhea was improved
- Skin-improving effect, summary ([5]; compared to site where BNP gel formulation had been applied, FIG. 1): has a skin moisturizing effect and is capable of improving skin texture
- Post-application symptoms (skin condition) ([5]; concentration not printed (about 1 μM), right face, gel base on the left): 1 min after application, skin tingling sensation
- Post-application symptoms (alopecia) [6]: 7 weeks after application, hair became elastic and formulation exhibited more remarkable hair-

Substance: SEQ ID NO 34 (CFGRKMDRISSSSGVGC; disulfide 1-17)
- Itches after application [7]: No irritating symptoms.

Substance: SEQ ID NO 75 (CFSRRMDRISSSSGIAC; disulfide 1-17)
- Diagnostic impression on skin after application [8]: After 2 minutes, erythema, scalesm

Substance: Ser-Pro-Lys-Met-Val-Gln-Gly-Ser-Gly-Cys-Phe-Gly-Arg-Lys-Met-Asp-Arg-Ile-Ser-Ser-Ser-Ser-Gly-Le u-Gly-Cys-Lys-Val-Leu-Arg-Arg-His [BNP, reference compound]
- Changes in subjective symptoms [2]: No subjective remission of skin
- Post-application symptoms [2]: No remission of skin desiccation
